The values below come from patent US7709482B2, “Polycyclic heteroaryl substituted triazoles useful as Axl inhibitors” (Rigel Pharmaceuticals, Inc., priority 2006, dated 2010).

In this experiment the target is T1, Axl (Homo sapiens, UniProt P30530).
T1 construct: endogenous in cells; host or cells: HeLa cells
T1 sequence (P30530 26-894): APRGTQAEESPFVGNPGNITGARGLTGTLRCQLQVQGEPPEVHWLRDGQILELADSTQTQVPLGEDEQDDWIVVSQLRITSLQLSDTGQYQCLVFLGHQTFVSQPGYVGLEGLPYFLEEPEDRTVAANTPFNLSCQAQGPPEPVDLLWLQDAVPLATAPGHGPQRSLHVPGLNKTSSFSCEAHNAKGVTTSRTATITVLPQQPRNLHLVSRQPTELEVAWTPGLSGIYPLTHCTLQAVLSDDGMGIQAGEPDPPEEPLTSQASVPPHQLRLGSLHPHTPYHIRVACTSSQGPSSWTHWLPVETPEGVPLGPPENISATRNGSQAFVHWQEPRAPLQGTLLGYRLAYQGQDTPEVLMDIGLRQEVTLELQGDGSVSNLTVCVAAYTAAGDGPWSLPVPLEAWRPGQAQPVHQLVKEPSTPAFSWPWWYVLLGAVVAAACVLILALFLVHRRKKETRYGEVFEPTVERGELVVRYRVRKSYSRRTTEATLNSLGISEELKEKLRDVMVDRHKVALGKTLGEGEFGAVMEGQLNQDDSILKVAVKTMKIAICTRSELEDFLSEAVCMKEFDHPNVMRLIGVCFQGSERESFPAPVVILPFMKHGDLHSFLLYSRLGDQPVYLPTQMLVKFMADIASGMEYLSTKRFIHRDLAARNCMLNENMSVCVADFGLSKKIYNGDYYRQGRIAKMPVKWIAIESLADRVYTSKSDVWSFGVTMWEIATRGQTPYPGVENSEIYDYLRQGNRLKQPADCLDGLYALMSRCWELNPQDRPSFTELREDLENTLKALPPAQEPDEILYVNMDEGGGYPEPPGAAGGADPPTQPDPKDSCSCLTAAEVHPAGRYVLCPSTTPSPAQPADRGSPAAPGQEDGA
The experiment is described as follows: Phospho-Akt In-Cell Western Assay (inhibition of Axl activity after Axl-antibody cross-linking). It counts as cell-based. An outline of the steps: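 Phospho-Akt was detected in formaldehyde-fixed cells by in-cell immunostaining with HRP chemiluminescence. Before fixation, HeLa cells kept 24 h in low-serum medium containing 500 ng/mL Axl/Fc received compound for 1 h at 37 °C, followed by 5-min Axl activation through antibody clustering.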

Setting [1] is: Hela cells, phospho-Akt chemiluminescence normalized to relative cell number, compounds of formula (Ib), Table 2, read-out: IC50.
The mark [2] stands for this setting: inhibition of Axl activity, Table 1, compounds of formula (Ia), read-out: IC50.
The mark [3] stands for this setting: Hela cells, phospho-Akt chemiluminescence normalized to relative cell number, compounds of formula (Ia), Table 1, read-out: IC50.

A word on the IC50: it is the concentration that inhibits the measured activity by half.

Where two headings read alike, the source gives them in different places.

As for `Nc1nc(Nc2ccc(CC3C(=O)Nc4ccc(F)cc43)cc2)n(-c2cc3c(nn2)-c2ccccc2CCC3)n1` (stereo not shown) [Compound 163, 1-(6,7-dihydro-5H-benzo[6,7]cyclohepta[1,2-c]pyridazin-3-yl)-N^5-(4-((5-fluoroindolin-2-on-3-yl)methyl)phenyl)-1H-1,2,4-triazole-3,5-diamine], the IC50 under setting [1] is above 20000 nM. `CCN(CC)C1CCc2ccc(Nc3nc(N)n(-c4cc5c(nn4)-c4ccccc4CCC5)n3)cc2CC1` (stereo not shown) [Compound 185, 1-(6,7-dihydro-5H-benzo[6,7]cyclohepta[1,2-c]pyridazin-3-yl)-N^3-(7-diethylamino-6,7,8,9-tetrahydro-5H-benzo[7]annulene-2-yl)-1H-1,2,4-triazole-3,5-diamine]: the IC50 under setting [2] is below 1000 nM.

Turning to `Nc1nc(Nc2ccc(I)cc2)nn1-c1cc2c(nn1)-c1ccccc1CCC2` [Compound 156, 1-(6,7-dihydro-5H-benzo[6,7]cyclohepta[1,2-c]pyridazin-3-yl)-N^3-(4-iodophenyl)-1H-1,2,4-triazole-3,5-diamine], the IC50 under setting [2] was above 20000 nM.

In the case of `CN1CCC2CN(c3ccc(Nc4nc(N)n(-c5cc6c(nn5)-c5ccccc5CCC6)n4)cc3F)CC21` (stereo not shown) [Compound 81, 1-(6,7-dihydro-5H-benzo[6,7]cyclohepta[1,2-c]pyridazin-3-yl)-N^3-(3-fluoro-4-(1-methyl-octahydropyrrolo[3,4-b]pyrrol-5-yl)phenyl)-1H-1,2,4-triazole-3,5-diamine], the IC50 under setting [3] was below 1000 nM. As for `Nc1nc(Nc2cnc3c(c2)CC2(CCC3)OCCO2)n(-c2cc3c(nn2)-c2ccccc2CCC3)n1` [Compound 248, 1-(6,7-dihydro-5H-benzo[6,7]cyclohepta[1,2-c]pyridazin-3-yl)-N^5-(5,7,8,9-tetrahydrospiro[cyclohepta[b]pyridine-6,2′[1,3]dioxolane]-3-yl)-1H-1,2,4-triazole-3,5-diamine], the IC50 under setting [1] is above 20000 nM. On to `CCN(CC)C1CCN(c2ccc(Nc3nc(N)n(-c4ncnc5c4CCCc4ccccc4-5)n3)cc2F)CC1` [Compound 39, 1-(6,7-dihydro-5H-benzo[6,7]cyclohepta[1,2-d]pyrimidin-4-yl)-N^3-(3-fluoro-4-(4-(diethylamino)piperidin-1-yl)phenyl)-1H-1,2,4-triazole-3,5-diamine], for which the IC50 under setting [3] is below 1000 nM. Same read-out and setting: in the case of `CN(C)CCN1CCOc2cc(Nc3nc(N)n(-c4cc5c(nn4)-c4ccccc4CCC5)n3)ccc21` [Compound 121, 1-(6,7-dihydro-5H-benzo[6,7]cyclohepta[1,2-c]pyridazin-3-yl)-N^3-(4-(2-dimethylaminoethyl)-(3,4-dihydro-2H-benzo[b][1,4]oxazin-7-yl))-1H-1,2,4-triazole-3,5-diamine] it was below 1000 nM. On to `CN1CCN(C2CCc3ccc(Nc4nc(N)n(-c5cc6c(nn5)-c5ccccc5CCC6)n4)cc3CC2)CC1` (stereo not shown) [Compound 227, 1-(6,7-dihydro-5H-benzo[6,7]cyclohepta[1,2-c]pyridazin-3-yl)-N^3-(7-(4-methylpiperazin-1-yl)-6,7,8,9-tetrahydro-5H-benzo[7]annulene-2-yl)-1H-1,2,4-triazole-3,5-diamine], for which, under setting [2], the IC50 is below 1000 nM. The same measure, in the same setting: in the case of `CN1CCN(CC=Cc2ccc(Nc3nc(N)n(-c4cc5c(nn4)-c4ccccc4CCC5)n3)cc2)CC1` [Compound 204, 1-(6,7-dihydro-5H-benzo[6,7]cyclohepta[1,2-c]pyridazin-3-yl)-N^3-(4-(4-methylpiperazin-1-ylprop-1-enyl)phenyl)-1H-1,2,4-triazole-3,5-diamine] it was below 1000 nM; in that of `Nc1nc(Nc2cnc3c(c2)CCC(N2CCCC2)CC3)nn1-c1cc2c(nn1)-c1ccccc1CCC2` (stereo not shown) [Compound 152, 1-(6,7-dihydro-5H-benzo[6,7]cyclohepta[1,2-c]pyridazin-3-yl)-N^3-((7-pyrrolidin-1-yl)-6,7,8,9-tetrahydro-5H-cyclohepta[b]pyridine-3-yl)-1H-1,2,4-triazole-3,5-diamine], below 1000 nM.

On to `CN1CCN(c2ccc(Nc3nc(N)nn3-c3cc4c(nn3)-c3ccccc3CCC4)cc2F)CC1` [Compound 242, 1-(6,7-dihydro-5H-benzo[6,7]cyclohepta[1,2-c]pyridazin-3-yl)-N^5-(3-fluoro-4-(4-methylpiperazin-1-yl)phenyl)-1H-1,2,4-triazole-3,5-diamine], for which the IC50 under setting [1] lay in the range of 1000 to 10000 nM. As to `CN(C)C1CCN(C/C=C/c2ccc(Nc3nc(N)n(-c4cc5c(nn4)-c4ccccc4CCC5)n3)cn2)CC1` [Compound 146, 1-(6,7-dihydro-5H-benzo[6,7]cyclohepta[1,2-c]pyridazin-3-yl)-N^3-(6-(3-(4-dimethylaminopiperidin-1-yl)-(E)-propenyl)pyridin-3-yl)-1H-1,2,4-triazole-3,5-diamine], the IC50 under setting [2] is below 1000 nM. Take `Nc1nc(Nc2cnc3c(c2)CN(C2CCCC2)CCC3)nn1-c1cc2c(nn1)-c1ccccc1CCC2` [Compound 139, 1-(6,7-dihydro-5H-benzo[6,7]cyclohepta[1,2-c]pyridazin-3-yl)-N^3-(6-cyclopentyl-6,7,8,9-tetrahydro-5H-pyrido[3,2-c]azepin-3-yl)-1H-1,2,4-triazole-3,5-diamine]: the IC50 under setting [2] is above 20000 nM. On to `CN(CCOc1ccc(Nc2nc(N)n(-c3cc4c(nn3)-c3ccccc3CCC4)n2)cc1)C1CCCC1` [Compound 60, 1-(6,7-dihydro-5H-benzo[6,7]cyclohepta[1,2-c]pyridazin-3-yl)-N^3-(4-(2-(N-methylcyclopentylamino)-ethoxy)phenyl)-1H-1,2,4-triazole-3,5-diamine], for which, under setting [3], the IC50 is below 1000 nM. Turning to `Nc1nc(Nc2ccc(N3CCC(N4C(=O)Cc5ccccc54)CC3)c(F)c2)n(-c2cc3c(nn2)-c2ccccc2CCC3)n1` [Compound 157, 1-(6,7-dihydro-5H-benzo[6,7]cyclohepta[1,2-c]pyridazin-3-yl)-N^5-(3-fluoro-4-(4-(indolin-2-on-1-yl)piperidin-1-yl)phenyl)-1H-1,2,4-triazole-3,5-diamine], the IC50 was above 20000 nM. On to `CC(C)N1CCN(c2ccc(Nc3nc(N)n(-c4cc5c(nn4)-c4ccccc4CCC5)n3)cc2F)CC1` [Compound 111, 1-(6,7-dihydro-5H-benzo[6,7]cyclohepta[1,2-c]pyridazin-3-yl)-N^3-(3-fluoro-4-(N-isopropylpiperazin-1-yl)phenyl)-1H-1,2,4-triazole-3,5-diamine], for which the IC50 under setting [3] is below 1000 nM. For the compound `Nc1nc(Nc2ccc(N3CCC(N4CCCC4)C3)c(F)c2)n(-c2cc3c(nn2)-c2ccccc2CCC3)n1` (stereo not shown) [Compound 174, 1-(6,7-dihydro-5H-benzo[6,7]cyclohepta[1,2-c]pyridazin-3-yl)-N^5-(3-fluoro-(4-(3-pyrrolidin-1-yl)pyrrolidin-1-yl)phenyl)-1H-1,2,4-triazole-3,5-diamine], the 50% inhibitory concentration (IC50) under setting [1] is 1000 to 10000 nM. In the case of `CC(C)N1CCN(Cc2ccc(Nc3nc(N)n(-c4cc5c(nn4)-c4ccccc4CCC5)n3)cc2)CC1` [Compound 108, 1-(6,7-dihydro-5H-benzo[6,7]cyclohepta[1,2-c]pyridazin-3-yl)-N^3-(4-((4-isopropylpiperazinyl)methyl)-phenyl)-1H-1,2,4-triazole-3,5-diamine], the IC50 under setting [3] was below 1000 nM. The same measure, in the same setting: as for `Nc1nc(Nc2ccc(OCCN3CCCC3)c(Cl)c2)nn1-c1cc2c(nn1)-c1ccccc1CCC2` [Compound 47, 1-(6,7-dihydro-5H-benzo[6,7]cyclohepta[1,2-c]pyridazin-3-yl)-N^3-(3-chloro-4-(2-(pyrrolidin-1-yl)ethoxy)phenyl)-1H-1,2,4-triazole-3,5-diamine], the figure is 1000 to 10000 nM; as for `CN1CCN(Cc2ccc(Nc3nc(N)n(-c4cc5c(nn4)-c4ccccc4CCC5)n3)cc2)CC1` [Compound 35, 1-(6,7-dihydro-5H-benzo[6,7]cyclohepta[1,2-c]pyridazin-3-yl)-N^3-(4-((4-methylpiperazin-1-yl)methyl)phenyl)-1H-1,2,4-triazole-3,5-diamine], below 1000 nM. As for `Cc1cc(Nc2nc(N)n(-c3cc4c(nn3)-c3ccccc3CCC4)n2)ccc1N1CCC(N2CCCC2)CC1` [Compound 106, 1-(6,7-dihydro-5H-benzo[6,7]cyclohepta[1,2-c]pyridazin-3-yl)-N^3-(3-methyl-4-(4-pyrrolidin-1-ylpiperidinyl)phenyl)-1H-1,2,4-triazole-3,5-diamine], under setting [3], the IC50 was below 1000 nM. On the same count and under the same terms, in the case of `Nc1nc(Nc2ccc(N3CCN4CCCCCC4C3)c(F)c2)nn1-c1cc2c(nn1)-c1ccccc1CCC2` (stereo not shown) [Compound 73, 1-(6,7-dihydro-5H-benzo[6,7]cyclohepta[1,2-c]pyridazin-3-yl)-N^3-(3-fluoro-4-(decahydropyrazino[1,2-a]azepin-2-yl)phenyl)-1H-1,2,4-triazole-3,5-diamine] it was below 1000 nM.
